# Assay results: US20030166007A1, “Chemical proteomics” (MDS Proteomics Inc., priority 2002, published 2003)
# “Also recorded” adds a separate entry of the source.
# Key:
# [1] = biological target: T1, HPRT (Homo sapiens, UniProt P00492); settings: cited from earlier work
# T1 sequence (P00492 1-218): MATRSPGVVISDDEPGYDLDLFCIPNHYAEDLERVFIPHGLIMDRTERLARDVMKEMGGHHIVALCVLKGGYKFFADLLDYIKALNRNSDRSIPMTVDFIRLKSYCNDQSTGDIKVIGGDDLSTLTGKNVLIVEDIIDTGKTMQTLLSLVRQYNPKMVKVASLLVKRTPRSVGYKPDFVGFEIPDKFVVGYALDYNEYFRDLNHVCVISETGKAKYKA
# [2] = tested on: Glycinamideribonucleotide synthase (GARS); assay: MTX-agarose affinity chromatography of cell lysate, MS identification; assay type: binding, human; settings: HEK 293 lysate; 110 kDa trifunctional protein and separate 50 kDa band
# Method: (§1) After incubation for 30 minutes at 4° C. with shaking, the lysates were clarified by centrifugation (27,000×g). In some experiments, cells were lysed using 20 strokes of a Dounce® homogenizer in the absence of detergents. […] While optimizing the protocol, however, several experimental variations were tested on cell lysates including concentration by ammonium sulfate precipitation, or removal of nucleic acid with Streptomycin sulfate. In such cases, the protein sample was desalted using a PD 10 protein-desalting column (Pharmacia), which had been pre-equilibrated in the same buffer (10 mM potassium phosphate pH 7.5)
# (§2) Affinity Chromatography: The desalted lysate was loaded onto a column of pre-equilibrated MTX-agarose (Sigma, 50 μL bed volume) or sepharose 4B agarose as a negative control. The lysates were allowed to slowly flow through the matrix under gravity flow. […] Retentates from the microcons were then loaded onto SDS-PAGE 4%-15% gradient mini gels (Bio-Rad). […]
# (§3) The peptides were then separated by reverse phase chromatography on C18 resin and directly injected into a mass spectrometer using an automated sample-loading device from 96 well plates. […] The spectra generated were analyzed on a custom-built multi-node server platform (RADARS, ProteoMetrics), which uses two database searching programs, Sonar (ProteoMetrics) and Mascot (Matrix Sciences). […]
# [3] = biological target: T2, AIR carboxylase (Homo sapiens, UniProt P22234); assay: as above; assay type: binding; settings: HEK 293 lysate
# T2 construct: endogenous in cells; host or cells: HEK 293
# T2 sequence (P22234 1-425): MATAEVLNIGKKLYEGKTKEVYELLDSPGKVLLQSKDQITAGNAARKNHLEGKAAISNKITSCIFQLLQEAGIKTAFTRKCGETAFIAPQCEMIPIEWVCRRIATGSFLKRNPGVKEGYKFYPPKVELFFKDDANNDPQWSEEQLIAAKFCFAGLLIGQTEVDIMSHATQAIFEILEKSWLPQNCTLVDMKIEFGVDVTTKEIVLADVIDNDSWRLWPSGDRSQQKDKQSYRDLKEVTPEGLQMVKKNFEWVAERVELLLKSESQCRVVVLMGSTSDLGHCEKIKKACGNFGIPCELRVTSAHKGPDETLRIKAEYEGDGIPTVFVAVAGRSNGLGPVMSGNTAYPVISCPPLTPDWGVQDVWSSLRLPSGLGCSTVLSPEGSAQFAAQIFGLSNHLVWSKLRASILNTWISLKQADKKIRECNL
# Method: as §1, §2, §3
# [4] = tested on: Inosine monophosphate dehydrogenase; assay: as above; assay type: binding, human; settings: HEK 293 lysate
# Method: as §1, §2, §3
# [5] = tested on: purine de novo synthesis in leukemia cells; settings: on treatment with Methotrexate; cited from earlier work
# [6] = biological target: T3, Pterin-4-alpha-carbinolamine dehydrogenase (PCD) (Homo sapiens, UniProt P61457); assay: MTX-agarose affinity chromatography of cell lysate, MS identification; assay type: binding; settings: HEK 293 lysate
# T3 construct: endogenous in cells; host or cells: HEK 293
# T3 sequence (P61457 1-104): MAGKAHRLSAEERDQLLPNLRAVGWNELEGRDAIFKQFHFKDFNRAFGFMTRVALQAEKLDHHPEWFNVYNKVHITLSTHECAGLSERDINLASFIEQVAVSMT
# Method: as §1, §2, §3
# [7] = biological target: T4, Propionyl CoA carboxylase (Homo sapiens, UniProt P05165+P05166); assay: as above; assay type: binding; settings: HEK 293 lysate
# T4 construct: endogenous in cells; host or cells: HEK 293
# T4 sequence (P05165 53-728): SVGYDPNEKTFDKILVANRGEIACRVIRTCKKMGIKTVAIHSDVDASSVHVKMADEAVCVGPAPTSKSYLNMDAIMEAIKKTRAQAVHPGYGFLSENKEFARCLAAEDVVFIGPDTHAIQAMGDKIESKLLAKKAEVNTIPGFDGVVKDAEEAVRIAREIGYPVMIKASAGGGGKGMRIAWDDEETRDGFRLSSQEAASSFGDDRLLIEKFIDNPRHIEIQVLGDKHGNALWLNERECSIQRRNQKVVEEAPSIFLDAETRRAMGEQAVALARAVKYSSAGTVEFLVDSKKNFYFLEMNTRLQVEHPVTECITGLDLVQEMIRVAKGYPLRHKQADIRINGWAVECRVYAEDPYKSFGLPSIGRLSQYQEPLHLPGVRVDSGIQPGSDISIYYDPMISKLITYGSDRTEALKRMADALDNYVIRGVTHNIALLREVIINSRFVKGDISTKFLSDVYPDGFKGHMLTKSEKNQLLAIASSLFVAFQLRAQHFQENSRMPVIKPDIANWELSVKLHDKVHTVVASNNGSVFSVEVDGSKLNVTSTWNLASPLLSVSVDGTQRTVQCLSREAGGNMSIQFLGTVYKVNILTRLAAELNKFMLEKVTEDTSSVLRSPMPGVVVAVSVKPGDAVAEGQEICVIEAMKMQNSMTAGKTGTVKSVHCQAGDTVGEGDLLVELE
# T4 sequence (P05166 29-539): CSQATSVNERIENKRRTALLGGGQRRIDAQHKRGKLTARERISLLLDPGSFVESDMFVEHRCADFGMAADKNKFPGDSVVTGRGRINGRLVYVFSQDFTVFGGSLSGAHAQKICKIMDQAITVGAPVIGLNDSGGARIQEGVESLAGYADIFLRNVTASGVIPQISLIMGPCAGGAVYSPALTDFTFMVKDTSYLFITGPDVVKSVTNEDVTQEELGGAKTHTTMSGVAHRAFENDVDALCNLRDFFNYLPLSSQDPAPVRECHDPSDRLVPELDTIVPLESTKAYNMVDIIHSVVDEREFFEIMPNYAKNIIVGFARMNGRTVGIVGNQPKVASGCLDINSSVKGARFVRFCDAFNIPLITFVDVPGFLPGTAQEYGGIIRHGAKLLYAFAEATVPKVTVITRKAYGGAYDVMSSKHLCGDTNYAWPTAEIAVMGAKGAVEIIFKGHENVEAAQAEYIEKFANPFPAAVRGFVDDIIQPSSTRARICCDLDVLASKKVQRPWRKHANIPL
# Method: as §1, §2, §3
# [8] = biological target: T5, Divalent Cation tolerant protein CUTA (Homo sapiens, UniProt O60888); assay: as above; assay type: binding; settings: HEK 293 lysate
# T5 construct: endogenous in cells; host or cells: HEK 293
# T5 sequence (O60888 33-179): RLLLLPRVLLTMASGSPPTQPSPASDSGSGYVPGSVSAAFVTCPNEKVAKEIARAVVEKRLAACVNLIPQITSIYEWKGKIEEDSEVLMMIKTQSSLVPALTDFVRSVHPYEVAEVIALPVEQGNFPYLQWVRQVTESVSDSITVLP
# Method: as §1, §2, §3
# [9] = biological target: T6, Nudix 1 (Homo sapiens, UniProt P36639); assay: as above; assay type: binding; settings: HEK 293 lysate
# T6 construct: endogenous in cells; host or cells: HEK 293
# Method: as §1, §2, §3
smiles,measurement,setting,value
CN(Cc1cnc2nc(N)nc(N)c2n1)c1ccc(C(=O)N[C@@H](CCC(=O)O)C(=O)O)cc1 [Methotrexate],effect on activity of HPRT,[1],can reduce the activity of HPRT
same,Association with the Methotrexate matrix,[2],GARS-derived peptides were isolated
same,Association with the Methotrexate matrix,[3],associated indirectly with Methotrexate
same,Protein identified by Mass Spec.; New MTX interactor,[4],binds this enzyme directly
same,Protein identified by Mass Spec.; New MTX interactor,[4]; listed as MTX,✓
same,accumulation of 5-phosphoribosyl-1-pyrophosphate,[5],3-4 fold
same,de novo purine pathway,[5],completely blocked
same,Protein identified by Mass Spec.; New MTX interactor,[6],binds directly to Methotrexate
same,Protein identified by Mass Spec.; New MTX interactor,[6]; listed as MTX,✓
same,Association with the Methotrexate matrix,[7],pulled down consistently
same,Association with the Methotrexate matrix,[8],consistently found; also recorded: pulled down consistently
same,Association with the Methotrexate matrix,[9],consistently found
